Columns and labels:
[1] = Metabolite characterization by LC/MS/MS in human plasma, urine, and feces; conditions: for Matrix (in which the metabolite was found): human plasma, urine, feces, LC/MS/MS
Procedure: The remaining eluate stream of 0.16 mL/min from the HPLC runs was diverted to the inlet of the mass spectrometer. The samples were analyzed using a heated electrospray ionization probe. Full-scan positive ion MS data were collected using Finnigan Exactive (MS^1) or Q-Exactive (MS^1 and MS^2) mass spectrometers (Thermo Fisher Scientific Inc.) Exact conditions are described in the Online Resource 3.
Finnigan Exactive or Q-Exactive mass spectrometers (Thermo Fisher Scientific Inc., San Jose, CA) were used to collect full scan MS^1 and MS^2 data.

[2] = Excretion and mass balance in urine and feces; type: in vivo, human
Text: Six healthy male volunteers, 25–45 years of age, with a mean body weight of 83.3 kg (range 64.5–94.4) and a mean body mass index of 26.9 kg/m^2 (range 20.2–29.9) participated in the study. […] The subject release criterion was defined as follows: the combined urine and fecal radioactivity excretion for two consecutive days should fall below 1% of the dose administered.
Detailed procedures on sample collection, storage, and shipment are described in Online Resource 1. […] Urine and feces collected from each subject were pooled at predose and every 24 h thereafter. Fecal homogenates were prepared by adding water (four times the feces weight) and homogenizing.
(§1) TRA analysis was carried out at ABC Laboratories. The radioactivity in plasma (duplicate per time point) and urine samples (triplicate per time point) was quantitated by direct counting in a Beckman LS6000SC or LS6500 liquid scintillation counter (PerkinElmer Life and Analytical Sciences, Boston, MA, USA). Whole blood (duplicate per time point) and fecal homogenate (triplicate per time point) samples were oxidized, and the resultant ^14CO2 was trapped in Carbosorb (Calgon Carbon Corporation, Pittsburgh, PA, USA) in combination with Permafluor, followed by liquid scintillation counting to determine the radioactivity. Individual samples were counted for 5 min for whole blood and fecal matrices, and 10 min for plasma and urine matrices. Predose blood, plasma, urine, and feces samples served as respective control samples to determine and subtract the background radioactivity in the analysis.
All urine voided was collected and stored in containers at 5±3 °C until the collection interval was completed. Subjects voided in the morning prior to study drug administration.
Multiple collections of urine during each collection interval from each individual subject were pooled. The urine samples from each collection interval were well mixed, accurately weighed, and assessed for its pH. A 100 ml sample from each collection interval from each subject was aliquoted into a separately labeled container to be sent to ABC Laboratories for radioactivity analysis. An approximately 10 ml sample from each collection interval from each subject on day 8 and each day thereafter was used for TRA analysis at Celerion (Lincoln, NE). All urine samples were kept frozen at −80 ± 15 °C.
Stool collections began approximately 24 h prior to drug administration until the end of the postdose sampling period. The 24 h predose samples were used as control samples for the radioactivity analysis and metabolite profiling. Feces were collected daily (24 h collection periods) until subjects were discharged from the clinical research unit.
All fecal samples were collected in polypropylene containers; toilet paper was collected separately. The weight of each sample was recorded. Multiple collections of feces during each collection interval from each individual subject were pooled. The feces samples were thoroughly homogenized with water (4X the weight of the feces). A 100 g sample was aliquoted into a separately labeled container to be sent to ABC Laboratories for radioactivity analysis. An approximately 10 g sample from each collection interval from each subject on day 8 and each day thereafter was used for TRA analysis at Celerion. All fecal homogenate samples were kept frozen at −80 ± 15 °C.

[3] = Metabolite profiling of plasma (HPLC-radiochromatography); type: in vivo, human; conditions: % of TRA
Procedure: For each subject, a 0–24 h pooled plasma sample was prepared according to the scheme outlined in the literature. In addition, several pooled plasma samples across all subjects were prepared at these time points: 5, 10, 12, […], and 48 h, and every 24 h thereafter until 240 h.
All pooled 0–24, 5, 10, 12, and 24 h plasma samples were processed as follows. […] The samples were vortexed for 30 min and centrifuged at 4500g at 4 °C for 6 min. The supernatants were transferred into new polypropylene tubes and kept on ice. The resulting plasma protein pellets were extracted twice to ensure good recovery and the extracts were combined. The combined extracts were loaded onto Ostro sample preparation plates (Waters Corporation, Milford, MA, USA), dried, eluted with 0.2 mL of cold acetonitrile, and all eluates were collected and evaporated under nitrogen (TurboVap LV; Caliper Life Sciences, Hopkinton, MA, USA). The dry residues were reconstituted in 0.1 mL of methanol, and a 0.005-mL aliquot was removed for determination of radioactivity. The remainder of the supernatants were transferred to high-performance liquid chromatography (HPLC) vials and stored at −80 °C until analysis.
Pooled post-24-h plasma samples were extracted using a slightly modified procedure. […] Appropriate volumes of formic acid were added to achieve a final concentration of 1%. Then, the samples were warmed to 37 °C and loaded to preconditioned Oasis HLB cartridges (Waters Corporation, Milford, MA, USA). These columns were then washed with water, dried under vacuum, and eluted with methanol. The eluates were collected and evaporated under nitrogen. The dry residues were reconstituted in 0.1 mL of methanol, and a 0.005-mL aliquot was removed for determination of radioactivity. The remainder of the supernatants were transferred to HPLC vials and stored at −80 °C until analysis.
(§2) A Finnigan Surveyor HPLC system (Thermo Fisher Scientific Inc., San Jose, CA, USA), consisting of an LC pump plus an autosampler and a UV–Vis plus detector, was used mostly for profiling (except the post-24-h plasma samples, which were analyzed using a Dionex HPLC system). A Phenomenex® Gemini® C18, 5-μm, 3.0 × 100-mm column (Phenomenex Inc., Torrance, CA, USA) was used along with a C-12 guard column (4 × 2 mm). LC conditions were as follows: solvent A was 10 mM ammonium bicarbonate in water (pH 10.0) and solvent B was 100% methanol and the flow rate was 0.8 mL/min. The following gradient was employed (B%): 0–5 min (20%), 32 min (42%), 33 min (60%), 55 min (70%), 56–60 min (95%), and 62–70 min (20%).
(§3) Reconstituted solvent extracts (0.050–0.10 mL) of plasma, urine, or feces were injected onto the HPLC column. The post-column eluate was split after UV detection into two streams (0.64 and 0.16 mL/min). The 0.64-mL stream was diverted to a fraction collector (Gilson FX 204; Gilson Medical Electronics, Middleton, WI, USA) to be collected in 96-well plates at 0.16 min/well (ScintiPlates; PerkinElmer Life Sciences, Shelton, CT, USA), and the 0.16-mL stream was directed to the mass spectrometer. The solvent in the 96-well plates was removed at 40 °C using a Genevac evaporator (Genevac, Inc., Stone Ridge, NY, USA).
(§4) The radioactivity counts per minute (CPM) in each well was determined using a MicroBeta scintillation counter (PerkinElmer Life and Analytical Sciences). The resulting CPM vs. time data were processed using Excel (Microsoft Corporation, Seattle, WA, USA). The CPM in each well was background-subtracted (using the average CPM values of the blank region of the HPLC run). Radiochromatographic profiles were obtained by plotting the resulting net CPM values against time after injection. Radioactive peaks in the chromatographic profiles were identified, and the radioactivity in each peak was summed and reported as a percentage of TRA in the HPLC run.

[4] = Metabolite profiling of feces (HPLC-radiochromatography); type: in vivo, human; conditions: 0–144 h pool
Procedure: One-gram samples of the fecal homogenates were transferred to 50-mL polypropylene tubes, extracted with 4 mL of methanol, and centrifuged (4500g). The resulting residues were extracted three more times (once with 2 mL of methanol and twice with 1 mL of methanol containing 1% formic acid) and centrifuged. All supernatants were combined and evaporated under nitrogen, and the residue was reconstituted with 0.5 mL of methanol, vortexed, sonicated, and centrifuged. A 0.010-mL aliquot of the supernatant was removed for determination of radioactivity, and the remainder of the supernatant was transferred to an HPLC vial and stored at −80 °C.
as §2, §3, §4

[5] = Plasma pharmacokinetics of TRA, ponatinib and metabolites after a single oral 45-mg [14C]ponatinib dose
Procedure: The subject release criterion was defined as follows: the combined urine and fecal radioactivity excretion for two consecutive days should fall below 1% of the dose administered.
Detailed procedures on sample collection, storage, and shipment are described in Online Resource 1. […] Fecal homogenates were prepared by adding water (four times the feces weight) and homogenizing.
as §1
M14 was quantitated using a different LC/MS/MS method (Online Resource 2). The pharmacokinetic analysis was carried out using WinNonlin® v6.4 (Pharsight Corp., Mountain View, CA, USA).
Aliquots of 30 µl of calibration standards, quality controls, and incurred plasma samples were transferred into a 96-well plate. Then 150 µl of ice-cold acetonitrile containing 50 ng/ml of AP30376 (d6-AP24600, internal standard) were added. The 96-well plate was vortexed for 10 min and then centrifuged at 4750 rpm for 20 min at 4°C. 100 µl aliquots of the supernatants were transferred into another 96-well plate and the samples were analyzed by liquid chromatography tandem mass spectrometry.

CN1CCN(Cc2ccc(N)cc2C(F)(F)F)CC1 [M19, 4-((4-methylpiperazin-1-yl)methyl)-3-(trifluoromethyl)aniline]
detection in human samples (plasma, urine, feces) ([1]; in vivo): not observed in any human samples | detection in human samples (plasma, urine, feces) ([1]; male, human, in vivo): The amide hydrolysis also would result in an aniline metabolite M19 (AP24592). However, this metabolite was not detected in any matrices.

CC(=O)Nc1ccc(CN2CCN(C)CC2)c(C(F)(F)F)c1 [M22]
detection in human samples (plasma, urine, feces) ([1]; MS traces): trace levels | Matrix (in which the metabolite was found) [1]: Trace: P, U, F

Cc1ccc([14C](=O)Nc2ccc(CN3CCN(C)CC3)c(C(F)(F)F)c2)cc1C#Cc1cnc2cccnn12 [[^14C]ponatinib]
share of total urinary TRA contained in the 0–72-h pool ([2]; 0–72 h): 84% | cumulative recovery in feces during 0–144 h, share of the TRA in feces ([2]; 0–144 h): 91% | dose recovered in feces ([2]; 0–336 h (days 0–14) postdose): 86.6% | dose recovered in urine ([2]; 0–336 h (days 0–14) postdose): 5.4% | total radioactive dose recovered (urine and feces) ([2]; 0–336 h postdose): 92%

Cc1ccc(C(=O)Nc2ccc(CN3CC[N+](C)([O-])CC3)c(C(F)(F)F)c2)cc1C#Cc1cnc2cccnn12 [M36, 4-(4-(3-(imidazo[1,2-b]pyridazin-3-ylethynyl)-4-methylbenzamido)-2-(trifluoromethyl)benzyl)-1-methylpiperazine 1-oxide]
Matrix (in which the metabolite was found) [1]: P, U, F | % Distribution in plasma ([3]; 0–24 h pooled plasma): ~0.5–1.0% | % Distribution in plasma ([3]; 5 h pooled plasma): ~0.5% | % Distribution in plasma ([3]; 10 h pooled plasma): ~0.5–1.0% | % Distribution in plasma ([3]; 12 h pooled plasma): ~0.5–1.0% | % Distribution in plasma ([3]; 36 h pooled plasma): – (“–” values less than 0.5% are not reported) | % Distribution in plasma ([3]; 48 h pooled plasma): – (“–” values less than 0.5% are not reported) | % Distribution in plasma ([3]; 72 h pooled plasma): – (“–” values less than 0.5% are not reported) | % Distribution in plasma ([3]; 96 h pooled plasma): – (“–” values less than 0.5% are not reported)

Cc1ccc(C(=O)Nc2ccc(CN3CCNCC3)c(C(F)(F)F)c2)cc1C#Cc1cnc2cccnn12 [M42, 3-(imidazo[1,2-b]pyridazin-3-ylethynyl)-4-methyl-N-(4-(piperazin-1-ylmethyl)-3-(trifluoromethyl)phenyl)benzamide]
Matrix (in which the metabolite was found) [1]: P, U, F | % of total radioactive dose [4]: 8.3% | % Distribution in matrix ([4]; % of fecal TRA): 9.6% | plasma level at 144 h postdose ([5]; human plasma, 144 h postdose): at or below detectable limits | time postdose at which C max / maximal levels in plasma were observed ([5]; human plasma, single oral 45-mg dose, M23 by radiochromatography): 2 to 12 h | concentration at 144 h ([5]; male, human, plasma, oral, 45 mg): < 0.2 nM | AUC(0-inf) ([5]; male, human, plasma, po, 45 mg): 1.8 µM·h | AUC(0-t) ([5]; male, human, plasma, po, 45 mg): 1.61 µM·h | Cmax ([5]; male, human, plasma, po, 45 mg): 107 nM | Tmax ([5]; male, human, plasma, po, 45 mg): 2 h | half-life ([5]; male, human, plasma, po, 45 mg): 56 h | % Distribution in plasma ([3]; 0–24 h pooled plasma): ~0.5–1.0% | % Distribution in plasma ([3]; 5 h pooled plasma): ~0.5–1.0% | % Distribution in plasma ([3]; 10 h pooled plasma): ~0.5–1.0% | % Distribution in plasma ([3]; 12 h pooled plasma): ~0.5–1.0% | % Distribution in plasma ([3]; 36 h pooled plasma): – (“–” values less than 0.5% are not reported) | % Distribution in plasma ([3]; 48 h pooled plasma): – (“–” values less than 0.5% are not reported) | % Distribution in plasma ([3]; 72 h pooled plasma): – (“–” values less than 0.5% are not reported) | % Distribution in plasma ([3]; 96 h pooled plasma): – (“–” values less than 0.5% are not reported)

From paper PMC5344956 (Cancer Chemotherapy and Pharmacology, 2017)
